Assay results from publication PMC6271423, “Synthesis and Biological Evaluation of New Pyridone-Annelated Isoindigos as Anti-Proliferative Agents” (Molecules, 2014).

What was measured:
[1] = test system: K562 cells; test: MTT cell viability (antiproliferative) assay in K562 cells; assay type: cell-based, human; details: for cytotoxicity / antiproliferative activity to K562 cells (in words): 0.0 to 30.0 µM, 24 h; for IC50: Homo sapiens
Description: The antiproliferative activities of the synthesized molecules were initially evaluated in human chronic […] leukemia cells K562. The effect of the six derivatives on the viability of K562 was assessed by an MTT assay as described in the methods. In all MTT tests performed, the known antiproliferative agent etoposide was used as a positive control to validate the accuracy of the assay.
Figure 2 The isoindigo compounds 3b and 3d inhibit the growth of K562 cells in a dose- and time-dependent manner. (A) K562 cells were treated with varying concentrations of compounds 3a to 3f (0.0 to 30.0 µM) for 24 h and the antiproliferative activity was analyzed by MTT assay as described in the methods. (B) K562 cells were incubated with 12.0 µM of either compound 3b or 3d for different periods of time (0 to 72 h) and cell viability was assessed by the MTT assay. The controls (in the presence or absence of the solvent vehicle DMSO) represent cells incubated under similar conditions in the absence of the test compound. The percentage of cell viability in each sample was expressed relative to untreated control, which was considered as a 100%. K562 cells were also treated with 4.0, 8.0 and 12.0 µM etoposide under similar conditions as positive controls. The results shown represent the mean ± SD of three independent trials.
Figure 3 The IC50 values of compounds 3b and 3d determined in K562 cells at different time points. K562 cells were treated with varying concentrations of compounds 3b or 3d (0.0 to 40.0 µM) for different periods of time (24, 48 and 72 h) and their antiproliferative activity was analyzed by MTT viability assay. The sigmoidal curves shown were obtained by plotting the percentages of viability (mean ± SD of three independent experiments, three replicates for each concentration in every experiment were used) versus logarithmic molar concentrations of the test compounds at the three different time points, and the IC50 value was determined using a non-linear regression analysis of GraphPad Prism 6 software.
The human chronic myelogenous leukemia K562 (ATCC® CCL-243^TM) and human acute monocytic leukemia THP-1 (ATCC® TIB-202^TM) suspension cells were maintained in RPMI-1640, while adherent HepG2 (human hepatocellular carcinoma, ATCC® HB-8065^TM), MCF7 (human breast adenocarcinoma, ATCC® HTB-22^TM) were cultured in DMEM medium. Adherent Caco-2 (human colorectal adenocarcinoma, ATCC® HTB-37^TM), HEK-293 (human embryonic epithelial cells, ATCC® CRL-1573^TM) and L-929 (mouse subcutaneous connective tissue fibroblast, ATCC® CCL-1^TM) cells were cultured in MEM medium. The media were supplemented with 10% (v/v) heat inactivated FBS, penicillin G (100 U/mL) and streptomycin ([…]), and cells were incubated at 37 °C in a 5% CO2 humidified incubator. The media were changed every 2–3 days and subcultured when the cell population density reached to 70%–80% confluence. Cells were seeded at an appropriate density according to each experimental design.
The antiproliferative activity of the synthesized compounds was assessed using the MTT cell viability assay. Briefly, 2 × 10^4 of the non-adherent K562 or THP-1 cells, in a 100 μL of RPMI-1640 medium, or […] of adherent HepG2, MCF-7, Caco-2, HEK-293 or L-929, in a same volume of the proper media, were seeded in each well of a 96 well-plate. After 24 h, the media was removed by aspiration and replaced by fresh media containing the test compound at varying concentrations (0.0 to 40.0 µM, for cancerous cells) or (0.0 to 80.0 µM, for noncancerous cells), and incubated for the desired time in a 5% CO2-cell culture incubator. Alternatively, cultured K562 cells were incubated with 12.0 µM of the test compound for different time-points (0, 2, 4, 8, 12, 24, 48 and 72 h) before analysis. […]

[2] = test system: THP-1 cells; test: MTT cell viability (antiproliferative) assay in THP-1 cells; assay type: cell-based; details: Homo sapiens, 48 h incubation
Text: (§1) In addition to the effect on K562 cells, we have also evaluated the potential antiproliferative activities of compounds 3b and 3d on different hematological and solid tumor cell lines. […] To further characterize the cytotoxicity of compounds 3b and 3d, we evaluated their effects on inducing apoptosis of the cultured K562 cells (Figure 5).
(§2) Figure 4 Compounds 3b and 3d inhibit the growth of various hematological and solid tumor cell lines but not noncancerous cells at low IC50 values. […]
(§3) The antiproliferative activity of the synthesized compounds was assessed using the MTT cell viability assay. […] Absorbance was measured within 60 min at 595 nm using an E Max Precision Microplate reader (Molecular Devices, Sunnyvale, CA, USA). Cell viability at a given concentration was determined from the following expression: Percentage Viability = (Atest compound − Ablank/Acontrol − Ablank) × 100 (1) where Atest compound = absorbance of wells with cells exposed to test compound in media; Acontrol = absorbance of wells with cells in media and Ablank = absorbance of wells with DMSO only, without cells. […]

[3] = test system: HepG2 cells; test: MTT cell viability (antiproliferative) assay in HepG2 cells; assay type: cell-based; details: Homo sapiens, 48 h incubation
Text: as §1, §2, §3

[4] = test system: L-929 cells; test: MTT cell viability assay in noncancerous L-929 fibroblasts; assay type: cell-based; details: Mus musculus, L929, 48 h incubation
Text: as §1, §2, §3

[5] = test system: HEK-293 cells; test: MTT cell viability assay in noncancerous HEK-293 cells; assay type: cell-based; details: Homo sapiens, HEK293, 48 h incubation
Text: as §1, §2, §3

[6] = test system: Caco-2 cells; test: MTT cell viability (antiproliferative) assay in Caco-2 cells; assay type: cell-based; details: Homo sapiens, 48 h incubation
Text: as §1, §2, §3

[7] = test system: MCF-7 cells; test: MTT cell viability (antiproliferative) assay in MCF-7 cells; assay type: cell-based; details: Homo sapiens, MCF7, 48 h incubation
Text: as §1, §2, §3

[8] = parameters: method as in PMID 16330129; details: cited from earlier work

In the case of `CCn1cc(C(=O)O)c(=O)c2c3c(ccc21)NC(=O)/C3=C1/C(=O)Nc2ccc([N+](=O)[O-])cc21` [3f, (E)-6-Ethyl-1-(5'-nitro-2'-oxoindolin-3'-ylidene)-2,9-dioxo-2,3,6,9-tetrahydro-1H-pyrrolo[3,2-f]quinoline-8-carboxylic acid], the “cytotoxicity / antiproliferative activity to K562 cells (in words)” value [1] is reported as “significantly inhibited their antiproliferative activities” and the melting point is reported as > 300 °C.
In the case of `CCn1cc(C(=O)O)c(=O)c2c3c(ccc21)NC(=O)/C3=C1/C(=O)Nc2ccc(Cl)cc21` [3b, (E)-1-(5'-Chloro-2'-oxoindolin-3'-ylidene)-6-ethyl-2,3,6,9-tetrahydro-2,9-dioxo-1H-pyrrolo[3,2-f]quinoline-8-carboxylic acid], the IC50 [2] is reported as 8.21 ± 0.62 µM, the IC50 [3] is reported as 8.97 ± 0.84 µM and the “cytotoxicity / antiproliferative activity to K562 cells (in words)” value [1] is reported as “significant dose-dependent cytotoxicity”. The IC50 ([1]; K562, 24 h incubation) was 15.1 ± 1.27 µM, the IC50 ([1]; K562, 48 h incubation) was 6.6 ± 0.58 µM and the IC50 ([1]; K562, 72 h incubation) was 4.02 ± 0.52 µM. It also gave an IC50 [4] of 40.4 ± 3.15 µM, an IC50 [5] of 30.7 ± 2.52 µM and an IC50 [6] of 14.6 ± 1.32 µM. It also gave an IC50 [7] of 11.9 ± 0.67 µM.
In the case of `CCn1cc(C(=O)O)c(=O)c2c3c(ccc21)NC(=O)/C3=C1/C(=O)Nc2cc(Cl)ccc21` [3c, (E)-1-(6'-Chloro-2'-oxoindolin-3'-ylidene)-6-ethyl-2,3,6,9-tetrahydro-2,9-dioxo-1H-pyrrolo[3,2-f]quinoline-8-carboxylic acid], the “cytotoxicity / antiproliferative activity to K562 cells (in words)” value [1] is reported as “significantly abolished the cytotoxicity” and the melting point is reported as > 300 °C.
For `CCn1cc(C(=O)O)c(=O)c2c3c(ccc21)NC(=O)/C3=C1/C(=O)Nc2cc(Br)ccc21` [3e, (E)-1-(6'-Bromo-2'-oxoindolin-3'-ylidene)-6-ethyl-2,3,6,9-tetrahydro-2,9-dioxo-1H-pyrrolo[3,2-f]quinoline-8-carboxylic acid], the “cytotoxicity / antiproliferative activity to K562 cells (in words)” value [1] was “significantly abolished the cytotoxicity” and the melting point was > 300 °C.
In the case of `CC(=O)OC1COC(N2C(=O)C(=C3C(=O)Nc4ccccc43)c3ccccc32)C(OC(C)=O)C1OC(C)=O` [Natura^TM, 1-(β-D-triacetylxylopyranosyl) isoindigo], the “solubility in water (in words)” value [8] is listed as “almost completely insoluble in water”.
In the case of `CCn1cc(C(=O)O)c(=O)c2c3c(ccc21)NC(=O)/C3=C1/C(=O)Nc2ccc(Br)cc21` [3d, (E)-1-(5'-Bromo-2'-oxoindolin-3'-ylidene)-6-ethyl-2,3,6,9-tetrahydro-2,9-dioxo-1H-pyrrolo[3,2-f]quinoline-8-carboxylic acid], the IC50 [2] is reported as 9.1 ± 1 µM, the IC50 [3] is reported as 13.9 ± 2.01 µM and the “cytotoxicity / antiproliferative activity to K562 cells (in words)” value [1] is reported as “significant dose-dependent cytotoxicity”. For the same compound, the IC50 ([1]; K562, 24 h incubation) was 19.1 ± 1.8 µM, the IC50 ([1]; K562, 48 h incubation) was 8.66 ± 0.81 µM and the IC50 ([1]; K562, 72 h incubation) was 6.92 ± 0.84 µM. For the same compound, the IC50 [4] was 71.9 ± 5.22 µM, the IC50 [5] was 52.5 ± 4.7 µM and the IC50 [6] was 19 ± 1.37 µM. The IC50 [7] was 15.7 ± 1.94 µM.
For `CCn1cc(C(=O)O)c(=O)c2c3c(ccc21)NC(=O)/C3=C1/C(=O)Nc2ccccc21` [3a, (E)-6-Ethyl-2,9-dioxo-1-(2'-oxoindolin-3'-ylidene)-2,3,6,9-tetrahydro-1H-pyrrolo[3,2-f]quinoline-8-carboxylic acid], the “cytotoxicity / antiproliferative activity to K562 cells (in words)” value [1] was “significantly inhibited their antiproliferative activities” and the melting point was > 300 °C.
